Laboratory results reported in patent US5442101A, “Methylenebisphosphonic acid derivatives” (Leiras Oy, priority 1990, dated 1995).

Test system: parathyroid hormone stimulated bone resorption in mouse calvaria
Test: parathyroid hormone stimulated bone resorption inhibition activity in vitro in mouse calvaria (antiresorptive activity)
Assay type: cell-based
Conditions: PTH stimulated

Compound	inhibition at 100 µM	Antiresorptive activity, Inhibition of resorption (%) (100 μM)
CCN(CC)P(=O)(O)C(Cl)(Cl)P(=O)(O)N(CC)CC [(dichloromethylene)bisphosphonic acid P,P'-bis(diethylamide)]	38%	
CCN(CC)P(=O)(O)C(Cl)(Cl)P(=O)(O)O [(dichloromethylene)bisphosphonic acid mono(diethylamide)]	43%	
O=P(O)(O)C(Cl)(Cl)P(=O)(O)O [Clodronate, reference compound]	43%	
CCN(CC)P(=O)(OC(C)C)C(Cl)(Cl)P(=O)(O)O (centres unmarked) [(dichloromethylene)bisphosphonic acid P-monoisopropyl ester P-mono(diethylamide)]		44%
CCN(CC)P(=O)(O)C(Cl)(Cl)P(=O)(N(CC)CC)N(CC)CC [(dichloromethylene)bisphosphonic acid tris(diethylamide)]	44%	
